Reference: ChEMBL document CHEMBL4196117, “PK/PD Disconnect Observed with a Reversible Endothelial Lipase Inhibitor” (ACS Med Chem Lett, 2018)

Columns and labels:
[1] = Protein binding in hamster plasma at 50 mg/kg, po qd for 7 days measured 6 hrs post dose on day 5; type: ADME, organism-based; details: cricetinae, read-out: PPB (converted)
[2] = Ratio of fCmax in hamster to IC50 for recombinant mouse endothelial lipase expressed in HEK293F cells using HDL as substrate; type: ADME, cell-based
Mus musculus [3] = assay: fCmin in C57BL/6J mouse at 50 mg/kg, po administered once daily for 5 days measured 24 hrs post last dose; type: ADME, organism-based; details: in vivo
[4] = Protein binding in CD1 mouse plasma at 1 mg/kg, po administered as bolus dose; type: ADME, organism-based; details: read-out: PPB (converted)
[5] = Protein binding in CD1 mouse plasma assessed as unbound fraction at 1 mg/kg, po administered as bolus dose; type: ADME, organism-based
[6] = Oral bioavailability in CD1 mouse at 1 mg/kg administered as bolus dose; type: ADME, organism-based; details: in vivo
[7] = Cmax in CD1 mouse at 1 mg/kg, po administered as bolus dose; type: ADME, organism-based; set-up: dose 1 mg/kg, route oral; details: in vivo
Mus musculus [8] = assay: Free drug level in CD1 mouse at 1 mg/kg, po administered as bolus dose measured after 24 hrs; type: ADME, organism-based; details: in vivo
[9] = Tmax in CD1 mouse at 1 mg/kg, iv administered as bolus dose; type: ADME, organism-based; details: in vivo
Endothelial lipase [10] = target: T1, Endothelial lipase (Homo sapiens, UniProt Q9Y5X9); assay: Inhibition of endothelial lipase in human HT1080 cells using PED-A1 containing DMPG vesicles as substrate pretreated for 20 mins followed by substrate addition and measured every 20 secs for 10 mins by fluorescence assay; type: cell-based
T1 sequence (Q9Y5X9 whole entry): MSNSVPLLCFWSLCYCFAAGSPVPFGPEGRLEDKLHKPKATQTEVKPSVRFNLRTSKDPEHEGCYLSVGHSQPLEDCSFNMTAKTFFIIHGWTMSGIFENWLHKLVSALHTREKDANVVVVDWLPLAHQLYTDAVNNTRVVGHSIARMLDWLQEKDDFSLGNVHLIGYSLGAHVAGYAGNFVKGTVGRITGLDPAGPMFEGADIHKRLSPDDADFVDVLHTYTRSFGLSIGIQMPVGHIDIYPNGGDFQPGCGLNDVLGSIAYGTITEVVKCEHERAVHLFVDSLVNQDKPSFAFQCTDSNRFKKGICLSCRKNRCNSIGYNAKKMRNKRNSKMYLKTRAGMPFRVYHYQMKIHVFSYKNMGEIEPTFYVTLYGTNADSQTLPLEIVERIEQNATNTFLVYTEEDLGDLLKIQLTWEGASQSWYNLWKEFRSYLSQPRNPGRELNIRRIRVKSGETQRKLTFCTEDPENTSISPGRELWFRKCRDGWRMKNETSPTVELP

[11] = Ratio of fCmin in C57BL/6J mouse to IC50 for recombinant mouse endothelial lipase expressed in HEK293F cells using HDL as substrate; type: ADME, cell-based
[12] = Ratio of fCmax in C57BL/6J mouse to IC50 for recombinant mouse endothelial lipase expressed in HEK293F cells using HDL as substrate; type: ADME, cell-based
Mus musculus [13] = assay: fCmax in C57BL/6J mouse at 50 mg/kg, po administered once daily for 5 days measured 6 hrs post last dose; type: ADME, organism-based; details: in vivo
[14] = Tmax in CD1 mouse at 1 mg/kg, po administered as bolus dose; type: ADME, organism-based; details: in vivo
[15] = Cmin in C57BL/6J mouse at 50 mg/kg, po administered once daily for 5 days measured 24 hrs post last dose; type: ADME, organism-based; details: in vivo, read-out: Cmin
Hamster = assay: fCmax in hamster at 50 mg/kg, po qd for 7 days measured 6 hrs post dose on day 5; type: ADME, organism-based; details: cricetinae, in vivo
[16] = Cmax in C57BL/6J mouse at 50 mg/kg, po administered once daily for 5 days measured 6 hrs post last dose; type: ADME, organism-based; set-up: dose 50 mg/kg, route oral; details: in vivo
[17] = Total AUC in CD1 mouse at 1 mg/kg, po administered as bolus dose; type: ADME, organism-based; set-up: dose 1 mg/kg, route oral, time AUCmax; details: in vivo
[18] = Cmax in CD1 mouse at 1 mg/kg, iv administered as bolus dose; type: ADME, organism-based; set-up: dose 1 mg/kg, route intravenous; details: in vivo
Mus musculus [19] = assay: Ratio of total AUC in CD1 mouse at 50 mg/kg, po administered as bolus dose to total AUC in CD1 mouse at 1 mg/kg, po administered as bolus dose; type: ADME, organism-based; details: in vivo
Mus musculus [20] = assay: Ratio of total AUC in CD1 mouse at 10 mg/kg, po administered as bolus dose to total AUC in CD1 mouse at 1 mg/kg, po administered as bolus dose; type: ADME, organism-based; details: in vivo
Endothelial lipase [21] = target: T1, Endothelial lipase; assay: Inhibition of endothelial lipase in human HT1080 cells using HDL as substrate pretreated for 10 mins followed by substrate addition and measured after 30 mins by LC/MS/MS analysis; type: cell-based
[22] = Total AUC in CD1 mouse at 1 mg/kg, iv administered as bolus dose; type: ADME, organism-based; set-up: dose 1 mg/kg, time AUCmax, route intravenous; details: in vivo
[23] = Half life in CD1 mouse at 1 mg/kg, po administered as bolus dose; type: ADME, organism-based; details: in vivo
[24] = Drug level in CD1 mouse at 1 mg/kg, po administered as bolus dose measured after 24 hrs; type: ADME, organism-based; details: in vivo, read-out: Drug uptake
[25] = Half life in CD1 mouse at 1 mg/kg, iv administered as bolus dose; type: ADME, organism-based; details: in vivo

SMILES: CCN1CC(C(=O)NC(C)CCc2ccc(Cl)c(Cl)c2)=C(O)C1=O (stereo in doubt; 7c)
- fraction unbound at 6 h [1]: 0.016
- Ratio [2]: 51
- fCmin (Mus musculus [3]): 1.3 µM
- fraction unbound [4]: 0.023
- fraction unbound [5]: 0.023
- bioavailability [6]: 96%
- Cmax [7]: 15 µM
- Drug uptake(free) (Mus musculus [8]): 99 nM
- Tmax [9]: 3 min
- IC50 (Endothelial lipase [10]): 148 nM
- Ratio [11]: 13
- Ratio [12]: 55
- fCmax (Mus musculus [13]): 5.5 µM
- Tmax [14]: 0.5 h
- concentration at 24 h [15]: 57 µM
- fCmax (Hamster): 5.1 µM
- Cmax [16]: 238 µM
- AUC [17]: 292 µM·h
- Cmax [18]: 39 µM
- Ratio AUC (Mus musculus [19]): 18
- Ratio AUC (Mus musculus [20]): 7.5
- IC50 (Endothelial lipase [21]): 218 nM
- AUC [22]: 304 µM·h
- half-life [23]: 13 h
- concentration at 24 h [24]: 4.31 µM
- half-life [25]: 13 h
